“Also recorded” adds a separate entry of the source.
Legend:
[1] = tested on: PDE activity in GH4C1 cells; experiment: Effect of PDE inhibitors, forskolin and VIP on cAMP levels (Ca2+ influx through CNG channels); format: cell-based, rat; conditions: for d(ΔF/F0)/dt: basal cAMP, inhibitor concentration (μM); for d(ΔF/F0)/dt / Ca2+ influx induced by the PDE inhibitor alone (basal cAMP): C460W/E583M channels; for Ca2+ influx induced by the PDE inhibitor alone (basal cAMP): no AC stimulation; for effect on forskolin-induced Ca2+ influx / PDE activity: Δ61-90/C460W/E583M channels, 10 μM forskolin
How it was run: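 GH4C1 rat pituitary cells expressing high-affinity C460W/E583M or Δ61-90/C460W/E583M CNG channels (adenovirus), with 1 μM nimodipine at time zero; cAMP read as Ca2+ influx rate d(ΔF/F0)/dt. PDE inhibitors or 100 μM IBMX added at 60 s, then 10 μM forskolin or 100 nM VIP at 240 s; mean±SE.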

PDE XI = biological target: T1, PDE XI (Homo sapiens, UniProt Q9HCR9); conditions: cited from earlier work
T1 construct: host or cells: heterologously expressed
T1 sequence (Q9HCR9 445-933 limits assumed): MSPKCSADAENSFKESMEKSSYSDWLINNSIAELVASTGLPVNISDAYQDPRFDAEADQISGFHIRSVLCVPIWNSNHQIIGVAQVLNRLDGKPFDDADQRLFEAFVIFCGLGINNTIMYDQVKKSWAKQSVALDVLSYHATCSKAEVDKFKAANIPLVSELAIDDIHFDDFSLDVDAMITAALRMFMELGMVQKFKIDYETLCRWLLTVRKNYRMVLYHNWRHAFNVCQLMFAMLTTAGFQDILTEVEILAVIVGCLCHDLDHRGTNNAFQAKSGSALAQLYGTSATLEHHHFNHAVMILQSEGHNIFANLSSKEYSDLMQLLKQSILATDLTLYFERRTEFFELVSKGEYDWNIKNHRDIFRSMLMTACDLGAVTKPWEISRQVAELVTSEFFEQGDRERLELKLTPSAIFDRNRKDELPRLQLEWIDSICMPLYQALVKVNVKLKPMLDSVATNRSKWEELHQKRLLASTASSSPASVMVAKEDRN

[2] = tested on: rat olfactory CNG channel α subunit; experiment: Excised inside-out patch recordings, cyclic nucleotide dose-response of CNG channel constructs; format: biochemical; conditions: 100 μM IBMX; 1 μM PGE1
How it was run: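 Inside-out patches were excised and recorded at 20-21° C., with symmetrical 130 mM NaCl, 2 mM HEPES, 0.02 mM EDTA, 1 mM EGTA, pH 7.6. Currents were elicited by 250 ms pulses to +50 and −50 mV; cyclic nucleotide-induced current was taken as the difference with and without cNMP. cAMP and cGMP dose-responses were fitted to the Hill equation for K1/2 and N.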

SMILES | d(ΔF/F0)/dt [1] [s⁻¹] | IC50 (PDE XI) [µM] | Ca2+ influx induced by the PDE inhibitor alone (basal cAMP) [1] | effect on forskolin-induced Ca2+ influx / PDE activity [1] | effect on CNG channel activity in excised membrane patches [2]
CCCCCC[C@@H]([C@@H](C)O)n1cnc2c(N)ncnc21 (racemic) [EHNA] | 0.0029 ± 0.0011 |  |  |  | 
CC(C)Cn1c(=O)n(C)c(=O)c2[nH]cnc21 [IBMX, 3-isobutyl-1-methylxanthine] |  | 49.8 | induced Ca^2+ influx through CNG channels | significantly inhibited PDE activity; also recorded: increase forskolin-induced Ca^2+ influx through CNG channels | did not alter CNG channel activity; also recorded: no effect on channel activity
CCCCOc1cc(CC2CNC(=O)N2)ccc1OC (stereo not shown) [RO-20-1724, 4-(3-butoxy-4-methoxybenzyl)-2-imidazolidinone] | 0 |  | No RO-20-1724- or rolipram-sensitive PDE was observed | also inhibited PDE activity; also recorded: increase forskolin-induced Ca^2+ influx through CNG channels | no effect on channel activity
COc1ccc(C2CNC(=O)C2)cc1OC1CCCC1 (stereo not shown) [Rolipram] | 0 | > 100 | No RO-20-1724- or rolipram-sensitive PDE was observed | also inhibited PDE activity; also recorded: increase forskolin-induced Ca^2+ influx through CNG channels | 

From patent US7341836B2, “Modified cyclic nucleotide gated ion channels” (The Regents of the University of Colorado, priority 2001, dated 2008)
